Test results published in EP0942066A2, “Cell line of blood-brain barrier” (KYOWA HAKKO KOGYO CO., LTD., priority 1998, dated 1999).

T1: GLUT1 (Mus musculus, UniProt P17809)
T1 construct: A band indicating the expression of GLUT-1 was confirmed in any of TM-BBB1, TM-BBB2, TM-BBB3, TM-BBB4 and TM-BBB5; endogenous in cells; host or cells: TM-BBB1 to TM-BBB5, conditionally immortalised mouse brain capillary endothelial cell lines (SV40tsA58 large T transgenic mice)
T1 sequence (P17809 1-492): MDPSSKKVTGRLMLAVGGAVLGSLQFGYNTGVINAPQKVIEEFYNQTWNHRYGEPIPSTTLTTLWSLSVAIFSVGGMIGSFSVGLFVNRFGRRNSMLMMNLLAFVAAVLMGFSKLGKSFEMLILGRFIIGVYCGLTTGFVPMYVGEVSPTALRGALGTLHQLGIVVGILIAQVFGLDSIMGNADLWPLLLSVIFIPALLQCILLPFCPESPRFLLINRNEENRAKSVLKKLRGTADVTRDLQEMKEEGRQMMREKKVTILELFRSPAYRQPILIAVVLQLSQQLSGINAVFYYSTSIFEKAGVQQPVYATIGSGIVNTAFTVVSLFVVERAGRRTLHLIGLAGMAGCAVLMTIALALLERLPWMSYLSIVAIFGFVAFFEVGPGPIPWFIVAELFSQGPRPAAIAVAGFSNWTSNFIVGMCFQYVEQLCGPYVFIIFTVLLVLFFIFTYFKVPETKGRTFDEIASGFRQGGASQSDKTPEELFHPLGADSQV

B1: GLUT1 (Mus musculus) (protein)
chain: T1 sequence (P17809 1-492)
notes: A band indicating the expression of GLUT-1 was confirmed in any of TM-BBB1, TM-BBB2, TM-BBB3, TM-BBB4 and TM-BBB5; endogenous in cells; host or cells: TM-BBB1 to TM-BBB5, conditionally immortalised mouse brain capillary endothelial cell lines (SV40tsA58 large T transgenic mice)

Tests used:
[1] = system: L-glutamic acid transporter; test: Incorporation of [^3H]L-glutamic acid into astrocyte cell lines TR-AST (glutamic acid transport ability); format: cell-based, rat; details: for incorporation of [^3H]L-Glu, expressed in % relative to the control: 1 mM of the inhibitor, control = 100±5; for inhibition of incorporation of [^3H]L-Glu (in words): other substrates of the transporter
Protocol: The glutamic acid transport ability of the cell lines obtained in Example 4, that is, TR-AST32, TR-AST811, TR-AST912, TR-AST932, TR-AST943 was examined by incorporation of [^3H]L-glutamic acid ([^3H]L-Glu). Each TR-AST's was plated onto a 24-well cell culture plate at a density of 2×10^5 cells/well and cultured in a CO2 incubator at 33°C to make the cells confluent. The incorporation of [^3H]L-Glu was measured in the following manner. First, the medium was suctioned, and the cells were washed with an uptake buffer at 37°C, and 0.2 mℓ uptake buffer containing 46.3 kBq/well [^3H]L-Glu and 9.25 kBq/mℓ [^14C]inulin at 37°C was added, and the tracer solution was removed after 2, 5, 10 or 30 minutes, and the cells were washed 3 times with 1 mℓ uptake buffer at 4°C. To the cells, 0.75 mℓ of 1% Triton X-100 was added, and the cells were allowed to stand overnight so that they were lyzed and then the lysate was measured for radioactivity in a liquid scintillation counter.
The Km and Vmax for incorporation of […] were analyzed using a non-linear minimum square program [Yamaoka, K. et al., J. Pharmacobio-Dyn, 4, 879-885 (1981)] using a plot formula (V = Vmax × [S]/(Km + [S]); Vmax is a maximum rate constant, Km is a Michaelis constant, and [S] is a substrate concentration) for the rate of incorporation of L-Glu. […]

[2] = target: T1, GLUT1; test: Incorporation of 3-O-methyl-D-glucose (3-OMG) into brain capillary endothelial cell lines TM-BBB (glucose transfer ability); format: cell-based; details: incorporation of [^3H]3-OMG into TM-BBB cell lines, uptake buffer 37°C, 20 seconds
Protocol: (§1) Each of TM-BBB's was plated onto a 24-well cell culture plate at a density of 3×10^5 cells/well/mℓ medium and cultured in a CO2 incubator at 33°C for 24 hours to make the cells confluent. The incorporation of 3-OMG was measured in the following manner. […] Ten seconds later, the uptake buffer was removed, and the cells were washed with the uptake buffer at 4°C. Subsequently, the uptake buffer was removed after 20 seconds, 30 seconds, 1 minute, or 10 minutes, and the cells were treated in the same manner. […] Twenty seconds later, the uptake buffer was removed, and the cells were washed with the uptake buffer at 4°C. Then, the cells were lyzed overnight with 1 mℓ PBS containing 1% Triton X-100 and then measured for radioactivity in a liquid scintillation counter. […] Pharmacobio-Dyn, 4: 879-885 (1981)] using a plot formula (V = Vmax x [S]/(Km + [S]); […]

[3] = substrate: CO[C@@H]([C@H](O)[C@H](O)CO)[C@@H](O)C=O; test: as above; format: cell-based, mouse; details: other: incorporation of [^3H]3-OMG into TM-BBB cell lines, uptake buffer 37°C, 20 seconds, 0.5-50 mM unlabelled 3-OMG, pH 7.4
Protocol: as §1

| Molecule | incorporation of [^3H]L-Glu, expressed in % relative to the control [1] [%] | inhibition of incorporation of [^3H]L-Glu (in words) [1] | further results |
| --- | --- | --- | --- |
| N[C@@H](CCC(=O)O)C(=O)O [L-Glu, L-glutamic acid] | 8.3±1.5 |  | maximum incorporation rate constant (Vmax) ([1]; incorporation of [^3H]L-Glu into TR-AST cell lines, 37°C): 1.8 nmol/min/mg protein; Km ([1]; incorporation of [^3H]L-Glu into TR-AST cell lines, 37°C, read-out: Michaelis constant (Km)): 96 µM |
| CO[C@@H]([C@H](O)[C@H](O)CO)[C@@H](O)C=O [3-OMG, 3-O-methyl-D-glucose] |  |  | maximum incorporation rate constant (Vmax) [2]: 44 nmol/min/mg protein |
| N[C@H](CC(=O)O)C(=O)O [D-Asp, D-aspartic acid] | 67±6 | significantly inhibited |  |
| N[C@@H](CC(=O)O)C(=O)O [L-Asp, L-aspartic acid] | 57±2 | significantly inhibited |  |
| B1 |  |  | Km [3]: 6600 µM |
